The results in this text go back to US9079854B2 (priority 2007, dated 2015).

By Emax is commonly meant the greatest response seen or fitted, relative to the assay's reference. For orientation: inhibition means the change of the read-out against control, counted positive when it falls. One may read the EC50 as the midpoint of the concentration-response curve.

In one test the target is T1, hCB2 receptor (Homo sapiens, UniProt P34972).
T1 construct: purchased ES-111-MG; host or cells: CHO membrane extracts
T1 sequence (P34972 whole entry): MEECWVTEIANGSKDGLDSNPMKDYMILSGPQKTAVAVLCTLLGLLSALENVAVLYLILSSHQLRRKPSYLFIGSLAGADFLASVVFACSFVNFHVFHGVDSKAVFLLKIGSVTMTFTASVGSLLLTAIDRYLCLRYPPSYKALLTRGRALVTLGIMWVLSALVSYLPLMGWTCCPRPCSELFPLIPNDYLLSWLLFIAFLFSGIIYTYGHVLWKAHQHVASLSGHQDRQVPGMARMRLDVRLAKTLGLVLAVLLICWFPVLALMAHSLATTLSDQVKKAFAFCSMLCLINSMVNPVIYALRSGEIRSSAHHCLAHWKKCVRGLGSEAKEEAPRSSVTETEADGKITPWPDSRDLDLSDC
As to the kind of experiment: CB2 functional assay, [35S]GTP-γ-S binding. It counts as biochemical. The protocol:
(§1) A dose response curve was generated at eight concentrations in duplicate on CB1 and CB2 in light of reference agonists.
(§2) Membranes (CB1, ES-110-MG or CB2, ES-111-MG) are mixed with GDP (volume:volume) and incubated for at least […] on ice. In parallel, […] are mixed with the beads (volume:volume) just before starting the reaction. The following reagents are successively added in the wells of an Optiplate: 50 μl of ligand, 20 μl of the membranes:GDP mix, 10 μl of assay buffer for agonist testing and 20 μl of the […]: beads mix. The plates are covered with a topseal, shaken on an orbital shaker for 2 min, and then incubated between 30 to 60 min at room temperature. Then the plates are centrifuged for 10 min at 2000 rpm, incubated at room temperature between 1 to 4 hours and counted for 1 min with a PerkinElmer TopCount reader.
(§3) Functional activity for acyl hydrazone was evaluated using [^35S]GTP-γ-S assay in CHO membrane extracts expressing recombinant hCB1 receptor or hCB2 receptor. The assay relies on the binding of [^35S]GTP-γ-S, a radiolabeled nonhydrolyzable GTP analogue, to the G protein upon binding of an agonist of the G-protein-coupled receptor. In this system, agonists stimulate [^35S]GTP-γ-S binding whereas neutral antagonist have no effect and inverse agonists decrease [^35S]GTP-γ-S basal binding.
(§4) CB1 and CB2 assay data are presented as the mean of two determinations. […] For replicate determinations, the maximum variability tolerated in the test was of ±20% around the average of the replicates.
A general note: GTPγS is a poorly hydrolysed GTP analogue; its binding reports G protein activation.

In the next test the target is CB1 (Homo sapiens, UniProt P21554). Nature of the test: CB1 functional assay, [35S]GTP-γ-S binding. The class given is biochemical. On the set-up: purchased ES-110-MG; host or cells: CHO membrane extracts. The protocol: as §1, §2, §3, §4
Sequence of CB1 (P21554 whole entry): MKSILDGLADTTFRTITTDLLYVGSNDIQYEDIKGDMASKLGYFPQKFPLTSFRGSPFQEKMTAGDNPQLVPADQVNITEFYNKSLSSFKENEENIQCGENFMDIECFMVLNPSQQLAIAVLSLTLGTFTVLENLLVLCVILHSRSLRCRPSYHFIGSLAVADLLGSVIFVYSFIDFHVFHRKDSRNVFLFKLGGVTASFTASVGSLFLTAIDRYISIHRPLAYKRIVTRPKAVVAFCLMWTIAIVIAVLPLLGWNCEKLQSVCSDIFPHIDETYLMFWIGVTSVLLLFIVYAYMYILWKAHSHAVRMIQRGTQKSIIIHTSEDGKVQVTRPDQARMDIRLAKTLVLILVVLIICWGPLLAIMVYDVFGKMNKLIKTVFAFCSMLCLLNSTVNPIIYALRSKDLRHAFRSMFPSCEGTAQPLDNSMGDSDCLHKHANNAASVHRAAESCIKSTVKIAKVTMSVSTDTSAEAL
Test [1] concerns the target T2, human CB2 (hCB2) receptor (Homo sapiens, UniProt P34972).
T2 construct: expressed in transfected cells; host or cells: CHO (Chinese hamster ovary) cells, membranes
As to the kind of experiment: CB2 binding assay, competitive binding of [3H]WIN 55212-2. As to conditions: for inhibition at 1 µM: read-out: % inhibition hCB2 receptor, at 1 μM, CHO membranes. The protocol:
Cell membrane homogenates (15 μg protein) are incubated for 120 min at 37° C. with 0.8 nM [^3H]WIN 55212-2 (the reference standard [Munro, 1993 #1321]) in the absence or presence of the test compound in a buffer containing 50 mM HEPES/Tris HCL (pH 7.4), 5 mM MgCl2, 2.5 mM EGTA, and 0.1% BSA. Nonspecific binding is determined in the presence of 10 μM WIN 55212-2. After being incubated, the samples are filtered rapidly under vacuum through glass fiber filters (GF/B; Packard) presoaked with 0.3% PEI and rinsed several times with ice-cold buffer containing 50 mM Tris HCl (pH 7.4) and 0.5% BSA using a 96-sample cell harvester (Unifilter; Packard). The filters are dried then counted for radioactivity in a scintillation counter (Topcount; Packard) using a scintillation cocktail (Microscint 0; Packard). The results are expressed as a percentage of the inhibition of the control radioligand-specific binding. The reference standard compounds are tested in each experiment at several concentrations to obtain a competition curve from which its IC50 is calculated.
(§5) […] [^3H]-CP55940 at a concentration of 0.5 nM and [^3H]-WIN55212 at a concentration of 0.8 nM were used as radioligands for hCB1 and hCB2 assays, respectively. The results are expressed as a percent inhibition of control specific binding. Compounds which displaced the radioligand by more than 50% for either hCB1 or hCB2 receptors were arbitrary chosen for functional activity determination.

Test [2] concerns the target T3, human CB1 (hCB1) receptor (Homo sapiens, UniProt P21554).
T3 construct: expressed in transfected cells; host or cells: CHO (Chinese hamster ovary) cells, membranes
Nature of the test: CB1 binding assay, competitive binding of [3H]CP 55940. As to conditions: for inhibition at 1 µM: CHO membranes. The protocol: Cell membrane homogenates (25 μg protein) are incubated for 120 min at 37° C. with 0.5 nM [^3H]CP 55940 (the reference standard [Rinaldi-Carmona, 1996 #1320]) in the absence or presence of the test compound in a buffer containing 50 mM Tris HCl (pH 7.4), 5 mM MgCl2, 2.5 mM EDTA, and 0.3% bovine serum albumin (BSA). […]
as §5

Where [3] appears, read: Table 7, relative to the efficacy of CP55940.
Setting [4] is: Table 9, relative to the efficacy of CP 55,940.
[5] abbreviates: specific binding of [3H]-WIN55212-2.
Setting [6] is: specific binding of [3H]-CP55940.
The mark [7] stands for this setting: Table 9, mean of two determinations, read-out: [35S]GTP-γ-S hCB2 EC50 (nM ± SEM).
[8] abbreviates: Table 10, repeated experiment, read-out: [35S]GTP-γ-S hCB2 EC50.

Each structure is given as a SMILES string. Where two headings read alike, the source gives them in different places.

T2 sequence (P34972 whole entry): as the sequence (P34972 whole entry) above
T3 sequence (P21554 whole entry): as the sequence (P21554 whole entry) above

For the compound `CCCCCCC(C)(C)c1ccc([C@@H]2C[C@H](O)CC[C@H]2CCCO)c(O)c1` [CP55,940, reference compound], the Emax on hCB2 receptor (setting [3]), on hCB2 receptor (setting [4]), on CB1 (setting [3]) and at CB1 (setting [4]) was 100% each time.

Regarding `O=C(N/N=C1\C(=O)N(CCC2CCCCC2)c2ccccc21)c1ccccc1` [Example 5, Benzoic acid [1-(2-cyclohexyl-ethyl)-2-oxo-1,2-dihydro-indol-3-ylidene]-hydrazide], the “% Inhibition of Control Specific Binding” value in test [1] (CB2, Test Concentration 1.0E−05 (MD)) turned out to be 80%. In addition, the “% of Control Specific Binding 1st” value in test [1] (CB2, Test Concentration 1.0E−05 (MD), 1st determination) amounted to 13.9%; in test [2] (CB1, Test Concentration 1.0E−05 (MD), 1st determination) it was 0.4%. In addition, the “% of Control Specific Binding 2nd” value in test [1] (CB2, Test Concentration 1.0E−05 (MD), 2nd determination) is listed as 26.4%; in test [2] (CB1, Test Concentration 1.0E−05 (MD), 2nd determination), 7.7%. The “% of Control Specific Binding Mean” value in test [1] (CB2, Test Concentration 1.0E−05 (MD), mean) came out at 20.2%; in test [2] (CB1, Test Concentration 1.0E−05 (MD), mean), 4%. Moreover, in test [1] (Table 4, concentration not given), the “% Inhibition of Control Specific Binding CB2” value worked out at 80%. For the same compound, the inhibition at 10 µM is 79.8 ± 6.3% in test [1] (read-out: % inhibition hCB2 receptor, at 10 μM, specific binding of [3H]-WIN55212-2) and 96 ± 3.7% in test [2] (at 10 μM, specific binding of [3H]-CP55940). Also, the “% Activation Average” value was 55.55% at hCB2 receptor (CB2 Functional Activity) and 56.75% at CB1 (CB1 Functional Activity). In addition, the “Compound Activity” value at hCB2 receptor (CB2 Functional Activity) and at CB1 (CB1 Functional Activity) was “Agonist” throughout. Also, the EC50 at hCB2 receptor (CB2 Functional Activity, read-out: EC50 (nM) for GTP Binding) was 103 nM; at hCB2 receptor (Table 7, mean of two determinations, read-out: [35S]GTP-γ-S (hCB2) EC50 (nM ± SEM)) it was 103 ± 1.6 nM. Besides, the Emax at hCB2 receptor (setting [3]) came out at 55.6%; on CB1 (setting [3]) it was 56.8%.

As for `CCCN1C(=O)/C(=N\NC(=O)c2ccccc2)c2ccccc21` [Example 21, N′-[(3Z)-1-(1-propyl)-2-oxo-1,2-dihydro-3H-indol-3-ylidene]benzohydrazide], the figures for the inhibition at 1 µM in test [1] (setting [5]) and in test [2] (setting [6]) were 32 ± 3.6% and 43 ± 1.2%, respectively. The EC50 on hCB2 receptor (setting [7]) turned out to be 200.7 ± 1.5 nM. Moreover, the Emax on hCB2 receptor (setting [4]) amounted to 61.4%.

As for `CCCCCCN1C(=O)/C(=N\NC(=O)c2ccccc2)c2cccc(C)c21` [Example 28, N′-[(3Z)-1-hexyl-7-methyl-2-oxo-1,2-dihydro-3H-indol-3-ylidene]benzohydrazide], the results for the inhibition at 1 µM in test [1] (setting [5]) and in test [2] (setting [6]) were 68 ± 3.7% and 67 ± 1.6%, respectively. In addition, the EC50 at hCB2 receptor (setting [7]) was 84 ± 2.2 nM. Besides, the Emax on hCB2 receptor (setting [4]) was 34.2%.

As to `CCCCCCN1C(=O)/C(=N\NC(=O)c2ccccc2)c2cccc(Cl)c21` [Example 29, N′-[(3Z)-7-chloro-1-hexyl-2-oxo-1,2-dihydro-3H-indol-3-ylidene]benzohydrazide], the inhibition at 1 µM in test [1] (setting [5]) was determined as 29 ± 4.5%; in test [2] (setting [6]) it was 60 ± 1%. For the same compound, on hCB2 receptor (setting [7]), the EC50 worked out at 645.5 ± 1.3 nM. For the same compound, at hCB2 receptor (setting [4]), the Emax came out at 64.8%.

On to `CCCCCCN1C(=O)/C(=N\NC(=O)c2ccccc2)c2cccc(I)c21` [Example 30, N′-[(3Z)-1-hexyl-7-iodo-2-oxo-1,2-dihydro-3H-indol-3-ylidene]benzohydrazide], for which the inhibition at 1 µM is 66 ± 3.2% in test [1] (setting [5]) and 61 ± 2.5% in test [2] (setting [6]). The Emax at 3 µM on hCB2 receptor (read-out: [35S]GTP-γ-S hCB2 Emax (%), Table 9 footnote a: Efficacy determined at 3 μM, relative to CP 55,940) turned out to be 55%.

For the compound `CCCCCCN1C(=O)/C(=N\NC(=O)c2ccccc2)c2cc(F)ccc21` [Example 33, N′-[(3Z)-5-fluoro-1-hexyl-2-oxo-1,2-dihydro-3H-indol-3-ylidene]benzohydrazide], the inhibition at 1 µM in test [1] (setting [5]) came out at 46 ± 1.7%; in test [2] (setting [6]), 57 ± 0.7%. Further, at hCB2 receptor (setting [7]), the EC50 was found to be 186.9 ± 1.7 nM. The Emax on hCB2 receptor (setting [4]) was 33.8%.

Turning to `CCCCCCN1C(=O)/C(=N\NC(=O)c2ccccc2)c2ccc(OC)cc21` [Example 36, N′-[(3Z)-1-hexyl-6-methoxy-2-oxo-1,2-dihydro-3H-indol-3-ylidene]benzohydrazide], the response at hCB2 receptor was half-maximal at 85 nM (EC50). In addition, the Emax at hCB2 receptor (Table 10, repeated experiment) is -95%.

Consider `COc1ccc2c(c1)N(CC1CCCCC1)C(=O)/C2=N\NC(=O)c1ccccc1` [Example 37, N′-[(3Z)-1-(cyclohexylmethyl)-6-methoxy-2-oxo-1,2-dihydro-3H-indol-3-ylidene]benzohydrazide], for which the Emax on hCB2 receptor (Table 10, repeated experiment) is -82%; at CB1 (Table 10, repeated experiment), 40.8%. The EC50 came out at 18 nM on hCB2 receptor (setting [8]) and 0.0612 µM at CB1 (Table 10, repeated experiment, read-out: [35S]GTP-γ-S hCB1 EC50).

For the compound `COc1ccc2c(c1)N(Cc1ccccc1)C(=O)/C2=N\NC(=O)c1ccccc1` [Example 38, N′-[(3Z)-1-benzyl-6-methoxy-2-oxo-1,2-dihydro-3H-indol-3-ylidene]benzohydrazide], at hCB2 receptor (Table 10, repeated experiment), the Emax is -96%. Further, the EC50 at hCB2 receptor (setting [8]) was 102 nM.

As for `CCCCCN1C(=O)/C(=N\NC(=O)c2ccccc2)c2ccc(OC)cc21` [Example 39, N′-[(3Z)-6-methoxy-1-pentyl-2-oxo-1,2-dihydro-3H-indol-3-ylidene]benzohydrazide], at hCB2 receptor (Table 10, repeated experiment), the Emax is -108%. For the same compound, the EC50 on hCB2 receptor (setting [8]) was 5.8 nM.

Take `CCCCN1C(=O)/C(=N\NC(=O)c2ccccc2)c2ccc(OC)cc21` [Example 40, N′-[(3Z)-1-butyl-6-methoxy-2-oxo-1,2-dihydro-3H-indol-3-ylidene]benzohydrazide]: the Emax on hCB2 receptor (Table 10, repeated experiment) is -95%. For the same compound, on hCB2 receptor (setting [8]), the EC50 was 85 nM.

Consider `COc1ccc2c(c1)N(CCC1CCCCC1)C(=O)/C2=N\NC(=O)c1ccccc1` [Example 41, N′-[(3Z)-1-(2-cyclohexylethyl)-6-methoxy-2-oxo-1,2-dihydro-3H-indol-3-ylidene]benzohydrazide], for which the Emax at hCB2 receptor (Table 10, repeated experiment) was -104%. Moreover, the EC50 on hCB2 receptor (setting [8]) is 540 nM.
